# Experimental data from patent US6787564B2, “Optically active clausenamides, process of the preparation thereof, pharmaceutical composition containing the same and their medical use” (Institute of Materia Medica, Chinese Academy of Medical …, priority 2002, dated 2004).
# Legend:
# [1] = tested on: animals with anisodine-induced memory impairment; test: step-through test, memory impairment induced by anisodine; assay type: in vivo
# Text: (§1) This invention used one trial avoidance task—step-down and step-through tests and water maze to compare the improving memorial effects of (±), (−) clausenamide. The drugs were given orally once to animals before experiment in step-down and step-through tests. The water maze test lasted for 5 days in succession. The results were expressed as latency and errors number.
# [2] = tested on: animals with anisodine-induced memory impairment; test: step-down test, memory impairment induced by anisodine; assay type: in vivo
# Text: as §1
# calpain = calpain activity in the cortical and hippocampal tissue; assay type: in vivo, rats; conditions: without HFS, Nimodipine 2 nmol, mean ± S.D., n = 5
# Text: The rats were anaesthetized with urethane carbonate.
# [3] = tested on: dentate gyrus of hippocampus; test: induction of LTP in hippocampal of rat (population spike amplitude); assay type: in vivo, SD rats; conditions: I.C.V.; means ± SD
# Text: Adult male SD rats were anesthetized to maintain a surgical level. A stainless steel cannula-recording electrode was placed in DG (dentate gyrus) of hippocampus using a stereotaxic instrument. The combination of cannula-recording electrode was constructed by insulating the outside of the cannula, except at the tip and top. In the top noninsulated area, a stainless steel wire was wrapped around the cannula and connected to the amplifier via an amphenol connector. The four pairs optically active clausenamides shown in table 9 was delivered by I.C.V. Responses were evoked via direct stimulation of the performant path (PP) using a stainless steel bipolar stimulating electrode. Constant current stimulation provided by a stimulator was delivered to the stimulating electrode through a Stimulus Isolation Unit.
# The stimulating electrode was adjusted until a characteristic EPSP was observed under constant current. The evoked responses were amplified on a series alternating current preamplifier, using a microcomputer, and then stored for off-line analysis using DataWave software. The current intensity that elicited a 50% maximal response in each animal was determined and used for all subsequent stimulation. To measure treatment effects, responses were evoked once every 30 sec throughout the entire experiment, and population spike amplitude(PSA) were calculated.
# zif/268 = test: protein biosyntheses of mice brain and zif/268 expression; conditions: mouse, in vivo
# apoptosis = test: three apoptotic models; assay type: cell-based; conditions: 10^−7−10^−5 mol/l
# mitochondrial complex IV = mitochondrial complex IV activity in Bax α high expressing PC12 cells; assay type: cell-based; conditions: without drug 0.09±0.019
# Text: Obviously, the increased mitochondrial membrane potential is considered to be one of the antiapoptotic mechanisms of (−) Clausenamide. The increased mitochondrial complex I and complex IV activity may account for the increased mitochondrial membrane potential. The Bax α protein may induce apoptosis by affecting enzyme activities of the mitochondrial electron transfer chain. And the mitochondrial complex I and complex IV could be the targeting points of the Bax α protein.
# potassium channel = potassium channel blockade (nootropic mechanism)
# BDNF = BDNF protein expression in cortical neurons and hippocampal pyramide cells; assay type: in vivo, rats; conditions: 8, 40 mg·kg^−1 orally daily for 10 days
# Bcl-2 = Bcl-2 expression level by western blot in 6-OHDA treated Bax α high expressing PC12 cells; assay type: cell-based; conditions: 10^−7M, 10^−6M; 24 hours after 6-OHDA treatment
# Text: (§2) It means that Bax α expression may promote the production of reactive oxygen species. The antiapoptotic effect of (−) clausenamide may be attributed to its reduction of the mitochondrial MDA level and the increase of mitochondrial GSH level. The increased mitochondrial GSH may be the result of the increased Bcl-2 level. As Bcl-2 itself is not an antioxidant, it may promote the closing of PT pores, and form heterodimers with Bax α and protect the mitochondria from injury and thus reduce the production of reactive oxygen, species.
# Ach, ChAT = test: Ach content and ChAT activity in cortex, hippocampus and striatum; conditions: in vivo
# [4] = tested on: Bax α high expressing PC12 cells; test: mitochondrial GSH and MDA level in 6-OHDA treated Bax α high expressing PC12 cells; assay type: cell-based; conditions: for mitochondrial GSH level: without drug 9.84±1.20; for mitochondrial MDA level: without drug 2.46±0.19
# Text: as §2
# isolated mitochondria = test: Bax α induced cytochrome c release from isolated mitochondria; assay type: biochemical
# Text: Studies have shown that the widely existing cytochrome c plays an important role in inducing apoptosis. Cytochrome c is the water soluble cytochrome within the cell and existed at the outside of the mitochondria inner membrane. Cytochrome c could be released into the cytoplasm from the mitochondrial to activate the apoptotic program. This study first purified the His-tagged Bax protein from the bacteria by the Metal Affinity method. When added to the isolated mitochondria, it caused a significant decrease of mitochondrial cytochrome c content (74.43±5.69 ug/mg, pro vs 50.2±3.65 ug/mg pro, p<0.01). […] It means that (−) clausenamide may also act directly on mitochondrial itself to exert its antiapoptotic activity independent Bcl-2. The exact mechanism of action still remains to be determined.
# rats = test: mossy fiber sprouting in fascia dentata and hippocampal CA3 region; assay type: in vivo; conditions: 8 and 40 mg·kg^−1 orally daily for 10 days; adult rat
# Text: 2. […] This is morphological basis for levoclausenamide to incnease synaptic transmission (see FIGS. 1 and 2).
# [5] = anisodine + drug 10 mg/kg (Tab 7)
# [6] = anisodine + drug 50 mg/kg (Tab 7)
structure (smiles),measurement,setting,value
"CN1C(=O)[C@@H](O)[C@H](c2ccccc2)[C@@H]1[C@@H](O)c1ccccc1 [(−)clausenamide, 3S, 4R, 5R, 6S (−) Levoclausenamide]","Latencies, Step-through",[1]; 5 mg/kg oral once,47.9 ± 90 s
same,"Error number, Step-through","[1]; 5 mg/kg oral once, 0.9% Nacl + anisodine 12.7 ± 4.6",5.7 ± 4.7
same,"Error number, Step-through",[1]; 10 mg/kg oral once (Table 4),6.5 ± 5.0
same,"Latencies, Step-through",[1]; 10 mg/kg oral once (Table 4),59.4 ± 91 s
same,"Error number, Step-through",[1]; 50 mg/kg oral once (Table 4),7.1 ± 3.6
same,"Latencies, Step-through",[1]; 50 mg/kg oral once (Table 4),17.1 ± 12.4 s
same,Error number,[1]; [5],6.7 ± 11.0
same,Latencies,[1]; [5],138.2 ± 86.7 s
same,Error number,[1]; [6],5.4 ± 4.1
same,Latencies,[1]; [6],140.6 ± 96.4 s
same,"Error number, Step-down",[2]; 5 mg/kg oral once,0.5 ± 0.5
same,"Latencies, Step-down",[2]; 5 mg/kg oral once,186 ± 129 s
same,"Error number, Step-down",[2]; 10 mg/kg oral once,0.2 ± 0.4
same,"Latencies, Step-down",[2]; 10 mg/kg oral once,296 ± 97 s
same,"Error number, Step-down",[2]; 50 mg/kg oral once,0.2 ± 0.4
same,"Latencies, Step-down",[2]; 50 mg/kg oral once,265 ± 91 s
same,"calpain activity, Cortical tissue",calpain; control 1.5 ± 0.2,2.6 ± 0.5 ΔA595nm/hr/mg protein
same,"calpain activity, Hippocampal tissue",calpain; control 1.7 ± 0.5,2.7 ± 0.8 ΔA595nm/hr/mg protein
same,"PSA (%), 15 min",[3],131.8 ± 0.4%
same,"PSA (%), 30 min",[3],138.5 ± 8.9%
same,"PSA (%), 60 min",[3],158.1 ± 4.2%
same,protein biosyntheses of mice brain,zif/268,increased
same,zif/268 mRNA and protein expression,zif/268,promoted
same,apoptosis in three apoptotic models,apoptosis,inhibited apoptosis significantly
same,mitochondrial complex IV activity,mitochondrial complex IV; 10^−5M,0.18±0.01 umol/mg pro/min
same,mitochondrial complex IV activity,mitochondrial complex IV; 10^−6M,0.15±0.02 umol/mg pro/min
same,mitochondrial complex IV activity,mitochondrial complex IV; 10^−7M,0.12±0.015 umol/mg pro/min
same,potassium channel action,potassium channel,potassium channel blocker
same,BDNF protein expression in the cortical neurons and pyramide cells in the hippocampus,BDNF,dose-dependently increased
same,Bcl-2 expression level,Bcl-2,significantly increase the Bcl-2 expression level
same,"Ach content in cortex, hippocampus and striatum","Ach, ChAT",increased
same,"ChAT activity in cortex, hippocampus and striatum","Ach, ChAT",increased
same,mitochondrial GSH level,[4]; 10^−5M,17.78±1.04 nmol/mg pro
same,mitochondrial MDA level,[4]; 10^−6M,1.54±0.13 nmol/mg pro
same,mitochondrial GSH level,[4]; 10^−6M,15.10±0.95 nmol/mg pro
same,mitochondrial GSH level,"[4]; 10^−7M, 6-OHDA treated",12.29±0.99 nmol/mg pro
same,mitochondrial MDA level,[4]; 10^−7M,1.76±0.17 nmol/mg pro
same,mitochondrial cytochrome c content after Bax α induced release,"isolated mitochondria; 10^−5M, Bax alone 50.2±3.65",67.95±7.6 μg/mg pro
same,mitochondrial cytochrome c content after Bax α induced release,"isolated mitochondria; 10^−6M, Bax alone 50.2±3.65",61.7±5.3 μg/mg pro
same,mitochondrial cytochrome c content after Bax α induced release,"isolated mitochondria; 10^−7M, His-tagged Bax alone 50.2±3.65, no Bax 74.43±5.69",58.73±3.77 μg/mg pro
same,mossy fiber sprouting in the fascia dentate and stratum lucidum,rats,dose-dependently increased
